Test results: patent US20240239767A1 (AstraZeneca AB, priority 2022, published 2024)

Assays:
[1] = target: T1, potassium ion channel hERG (human Ether-á-go-go-Related Gene) (Homo sapiens, UniProt Q12809); assay: Assay 5 - hERG assay (SyncroPatch 384PE patch clamp, CHO cells); type: cell-based; settings: geometric mean, CHO cells over-expressing hERG, read-out: Assay 5 (hERG Hu CHO IF EPh CR-Syncro) GMean IC50
T1 construct: expressed in transfected cells; host or cells: Chinese hamster ovary K1 (CHO)
T1 sequence (Q12809 whole entry): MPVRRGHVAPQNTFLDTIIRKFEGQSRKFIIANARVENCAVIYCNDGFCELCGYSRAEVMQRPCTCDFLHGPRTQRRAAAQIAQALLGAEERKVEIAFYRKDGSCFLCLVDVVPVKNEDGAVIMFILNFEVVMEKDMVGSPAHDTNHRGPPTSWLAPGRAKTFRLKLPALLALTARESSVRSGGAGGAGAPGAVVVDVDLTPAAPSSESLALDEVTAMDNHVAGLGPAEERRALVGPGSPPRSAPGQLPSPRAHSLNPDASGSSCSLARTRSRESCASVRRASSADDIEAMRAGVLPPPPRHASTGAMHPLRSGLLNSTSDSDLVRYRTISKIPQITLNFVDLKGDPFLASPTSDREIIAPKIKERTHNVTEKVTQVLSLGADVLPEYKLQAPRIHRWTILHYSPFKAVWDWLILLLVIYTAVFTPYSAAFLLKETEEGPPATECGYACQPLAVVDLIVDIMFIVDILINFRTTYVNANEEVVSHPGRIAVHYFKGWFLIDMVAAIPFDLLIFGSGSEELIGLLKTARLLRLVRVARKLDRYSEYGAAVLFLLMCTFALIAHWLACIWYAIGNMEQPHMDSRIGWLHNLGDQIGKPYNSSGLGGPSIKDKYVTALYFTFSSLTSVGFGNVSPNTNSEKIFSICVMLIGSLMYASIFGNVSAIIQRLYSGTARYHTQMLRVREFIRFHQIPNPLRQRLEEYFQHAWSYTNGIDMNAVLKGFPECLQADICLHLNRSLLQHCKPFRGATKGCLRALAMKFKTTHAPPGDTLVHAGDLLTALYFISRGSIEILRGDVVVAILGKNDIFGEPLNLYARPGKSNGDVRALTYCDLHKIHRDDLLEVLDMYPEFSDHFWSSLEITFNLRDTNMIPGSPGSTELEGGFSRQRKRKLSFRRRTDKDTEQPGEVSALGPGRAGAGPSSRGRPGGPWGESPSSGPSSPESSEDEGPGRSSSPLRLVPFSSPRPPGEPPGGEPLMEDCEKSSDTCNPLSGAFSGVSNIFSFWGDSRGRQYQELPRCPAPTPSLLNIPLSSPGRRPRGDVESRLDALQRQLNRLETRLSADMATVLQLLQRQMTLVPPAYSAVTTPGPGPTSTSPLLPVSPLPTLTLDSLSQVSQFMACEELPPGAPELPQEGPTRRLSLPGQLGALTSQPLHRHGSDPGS
Procedure: Assay 5—hERG Assay (Human Ether-á-go-go-Related Gene)
This assay (human Ether-á-go-go-Related Gene) measures activity of the compounds at the potassium ion channel hERG (human Ether-á-go-go-Related Gene).
Experiments were performed on the SyncroPatch 384PE high throughput patch clamp platform at room temperature and medium resistance chips with 4 patch holes per site. Chinese hamster ovary K1 (CHO) cell lines over-expressing the ion channel of choice (hERG) were used in assay-ready format and kept in liquid nitrogen or were used from live culture. Cells were either thawed and diluted in HBSS or were detached from flasks and resuspended in HBSS. HBSS comprised 140 mM NaCl, 4 mM KCl, 10 mM HEPES and 5 mM Glucose (pH 7.4). The internal patch clamp solution was KF 120 mM, KCl 20 mM, HEPES 10 mM, EGTA 10 mM, and 25 μM Escin (pH 7.2). After the sealing process was complete, the external solution was exchanged for external patch clamp solution comprising NaCl 80 mM, KCl 4 mM, HEPES 10 mM, CaCl2 2 mM, MgCl2 1 mM, glucose 5 mM, and NMDG 60 mM (pH 7.4). All solutions were stored at room temperature, except Escin, which was stored at 4° C. All test compounds were dispensed in greiner-bio 384 well plates and tested in a 6 point cumulative assay (final DMSO concentration 0.33%). Only wells that passed previously agreed acceptance criteria for this platform were used in this analysis (30 MegaOhm seal resistance, Z prime>0.4 and current size>0.2 nA).

[2] = target: GSK3b (Glycogen synthase kinase-3 beta) (Homo sapiens, UniProt P49841); assay: Assay 6 - GSK3b assay (ThermoFisher, FRET Z-Lyte); type: biochemical; settings: geometric mean; ATP Conc: 10.000 μM; read-out: Assay 6 (GSK3B FRET-Z-Lyte CR) GMean IC50 (μM) ATP Conc: 10.000
GSK3b (Glycogen synthase kinase-3 beta), sequence (P49841 whole entry): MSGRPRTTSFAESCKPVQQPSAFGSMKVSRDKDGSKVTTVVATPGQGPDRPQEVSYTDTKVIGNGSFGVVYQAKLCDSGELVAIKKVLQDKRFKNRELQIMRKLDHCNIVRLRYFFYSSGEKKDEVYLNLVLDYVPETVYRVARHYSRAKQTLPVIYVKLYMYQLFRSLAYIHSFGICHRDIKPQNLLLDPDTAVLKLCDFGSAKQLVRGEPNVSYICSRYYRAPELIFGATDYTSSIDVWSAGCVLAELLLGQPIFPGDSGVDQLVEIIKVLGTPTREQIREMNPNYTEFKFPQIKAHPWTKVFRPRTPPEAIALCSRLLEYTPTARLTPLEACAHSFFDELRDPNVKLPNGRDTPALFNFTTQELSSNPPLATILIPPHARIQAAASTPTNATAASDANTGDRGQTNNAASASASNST
Procedure: This assay measures the activity of the compounds at GSK3b (Glycogen synthase kinase-3 beta).
The test compounds were screened in 1% DMSO (final) in the well. For 10-point titrations, 3-fold serial dilutions are conducted from the starting concentration of 10 μM.
• Bar-coded Corning, low volume NBS, black 384-well plate • 1. 2.5 μL—4× Test Compound or 100 nL 100× plus 2.4 μL kinase buffer • 2. 5 μL—2× Peptide/Kinase Mixture • 3. 2.5 μL—4× ATP Solution • 4. 30-second plate shake • 5. 60-minute Kinase Reaction incubation at room temperature • 6. 5 μL—Development Reagent Solution • 7. 30-second plate shake • 8. 60-minute Development Reaction incubation at room temperature • 9. Read on fluorescence plate reader and analyse the data
In step 2, the 2× GSK3β (GSK3 beta)/Ser/Thr (Glycogen synthase kinase-3 beta/Serine/Threonine) 09 mixture is prepared in 50 mM HEPES (4-(2-hydroxyethyl)-1-piperazineethanesulfonic acid) pH 7.5, 0.01% BRIJ-35, 10 mM MgCl2, 1 mM EGTA (egtazic acid). The final 10 μL Kinase Reaction consists of 0.22-0.92 ng GSK3β (GSK3 beta) and 2 μM Ser/Thr 09 in 50 mM HEPES pH 7.5, 0.01% BRIJ-35, 10 mM MgCl2, 1 mM EGTA.
In step 3 the ATP Solution is diluted to a 4× working concentration in Kinase Buffer (50 mM HEPES pH 7.5, 0.01% BRIJ-35, 10 mM MgCl2, 1 mM EGTA).
In Step 6 the Development Reagent is diluted 1:512 in Development Buffer (10× Novel PKC Lipid Mix: 2 mg/mL Phosphatidyl Serine, 0.2 mg/mL DAG in 20 mM HEPES, pH 7.4, 0.3% CHAPS).
SelectScreen® Kinase Profiling Service uses XLfit from IDBS. The dose response curve is curve fit to model number 205 (sigmoidal dose-response model).

PCSK9 = PCSK9 (Homo sapiens, UniProt Q8NBP7, G670E/V474I); assay: biochemical
PCSK9, sequence (Q8NBP7 with tags, fused parts or gaps V474I/G670E): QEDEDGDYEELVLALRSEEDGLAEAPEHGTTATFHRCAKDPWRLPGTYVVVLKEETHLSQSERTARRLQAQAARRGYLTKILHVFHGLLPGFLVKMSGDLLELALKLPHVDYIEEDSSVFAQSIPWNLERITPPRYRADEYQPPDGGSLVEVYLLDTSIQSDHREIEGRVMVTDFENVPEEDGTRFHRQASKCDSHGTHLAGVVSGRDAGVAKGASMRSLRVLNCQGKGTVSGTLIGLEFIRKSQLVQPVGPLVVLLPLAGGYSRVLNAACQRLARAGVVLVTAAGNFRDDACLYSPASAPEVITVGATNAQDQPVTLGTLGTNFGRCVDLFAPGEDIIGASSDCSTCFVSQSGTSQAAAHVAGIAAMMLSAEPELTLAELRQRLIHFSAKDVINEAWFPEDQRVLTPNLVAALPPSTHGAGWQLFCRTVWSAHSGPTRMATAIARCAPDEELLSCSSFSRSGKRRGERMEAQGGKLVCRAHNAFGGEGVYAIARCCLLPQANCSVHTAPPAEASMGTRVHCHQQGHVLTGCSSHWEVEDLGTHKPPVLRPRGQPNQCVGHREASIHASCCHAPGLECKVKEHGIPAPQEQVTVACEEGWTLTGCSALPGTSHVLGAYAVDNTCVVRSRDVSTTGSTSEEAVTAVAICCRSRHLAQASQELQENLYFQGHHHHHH

Row | Structure (SMILES) | IC50 [1] [µM] | IC50 [2] [µM] | IC50 (PCSK9) [µM]
1 | O=c1ccccn1-c1ccc(N[C@H]2CC[C@H](Nc3nc4cc(CO)cnc4s3)C2)nc1 [Compound 88] | > 40.1 | > 10 | 0.0099
2 | O=c1ccccn1-c1ccc(N[C@H]2CC[C@H](Nc3nc4ncccc4o3)C2)nc1 [Compound 89, 6′-(((1S,3S)-3-(Oxazolo[4,5-b]pyridin-2-ylamino)cyclopentyl)amino)-2H-[1,3′-bipyridin]-2-one] | > 40.1 | > 10 | 0.259
3 | O=c1ccccn1-c1ccc(N[C@H]2CC[C@H](Nc3nc4ccccc4o3)C2)nc1 [Example 1, 6′-(((1S,3S)-3-(Benzo[d]oxazol-2-ylamino)cyclopentyl)amino)-2H-[1,3′-bipyridin]-2-one] | > 40 | > 10 | 0.0343
4 | Cc1ccc2nc(N[C@H]3CC[C@H](Nc4ccc(-n5ccccc5=O)cn4)C3)oc2c1 [Example 2, 6′-(((1S,3S)-3-((6-Methylbenzo[d]oxazol-2-yl)amino)cyclopentyl)amino)-2H-[1,3′-bipyridin]-2-one] | 13.2 | > 10 | 0.0118
5 | O=c1ccccn1-c1ccc(N[C@H]2CC[C@H](Nc3nc4ccc(Br)cc4o3)C2)nc1 [Example 3, 6′-(((1S,3S)-3-((6-Bromobenzo[d]oxazol-2-yl)amino)cyclopentyl)amino)-2H-[1,3′-bipyridin]-2-one] | 4.2 | > 10 | 0.0082
6 | O=c1ccccn1-c1ccc(N[C@H]2CC[C@H](Nc3nc4ccc(Br)cc4s3)C2)nc1 [Example 6, 6′-(((1S,3S)-3-((6-Bromobenzo[d]thiazol-2-yl)amino)cyclopentyl)amino)-2H-[1,3′-bipyridin]-2-one] | 2.64 | > 10 | 2.73
7 | O=c1ccccn1-c1ccc(N[C@H]2CC[C@H](Nc3nc4ccccc4s3)C2)nc1 [Example 7, 6′-(((1S,3S)-3-(Benzo[d]thiazol-2-ylamino)cyclopentyl)amino)-2H-[1,3′-bipyridin]-2-one] | 12.6 | > 10 | 0.324
8 | Cc1ccc2nc(N[C@H]3CC[C@H](Nc4ccc(-n5ccccc5=O)cn4)C3)sc2c1 [Example 8, 6′-(((1S,3S)-3-((6-Methylbenzo[d]thiazol-2-yl)amino)cyclopentyl)amino)-2H-[1,3′-bipyridin]-2-one] | 6.32 | > 10 | 2.08
9 | N#Cc1ccc2sc(N[C@H]3CC[C@H](Nc4ccc(-n5ccccc5=O)cn4)C3)nc2c1 [Example 9, 2-(((1S,3S)-3-((2-Oxo-2H-[1,3′-bipyridin]-6′-yl)amino)cyclopentyl)amino)benzo[d]thiazole-5-carbonitrile] | 3.56 | 1.51 | 0.0179
10 | N#Cc1ccc(=O)n(-c2ccc(N[C@H]3CC[C@H](Nc4nc5cccnc5o4)C3)nc2)c1 [Example 17, 6′-(((1S,3S)-3-(Oxazolo[5,4-b]pyridin-2-ylamino)cyclopentyl)amino)-2-oxo-2H-[1,3′-bipyridine]-5-carbonitrile] | > 40.1 | > 10 | 0.0305
11 | COc1ccnc2[nH]c(N[C@H]3CC[C@H](Nc4ccc(-n5ccccc5=O)cn4)C3)nc12 [Example 27, 6′-(((1S,3S)-3-((7-Methoxy-3H-imidazo[4,5-b]pyridin-2-yl)amino)cyclopentyl)amino)-2H-[1,3′-bipyridin]-2-one] | > 40 | 2.49 | 0.049
12 | Fc1cccnc1-c1ccc(N[C@H]2CC[C@H](Nc3nc4cccnc4[nH]3)C2)nc1 [Example 30, (1S,3S)—N^1-(3-Fluoro-[2,3′-bipyridin]-6′-yl)-N^3-(3H-imidazo[4,5-b]pyridin-2-yl)cyclopentane-1,3-diamine] | 3.15 | > 10 | 0.0345
13 | O=c1cccnn1-c1cnc(N[C@H]2CC[C@H](Nc3nc4cccnc4[nH]3)C2)nc1 [Example 31, 2-(2-(((1S,3S)-3-((3H-Imidazo[4,5-b]pyridin-2-yl)amino)cyclopentyl)amino)pyrimidin-5-yl)pyridazin-3(2H)-one] | > 40.1 | > 10 | 0.0251
14 | Fc1cccc(OC(F)F)c1-c1ccc(N[C@H]2CC[C@H](Nc3nc4cccnc4[nH]3)C2)nc1 [Example 32, (1S,3S)—N^1-(5-(2-(Difluoromethoxy)-6-fluorophenyl)pyridin-2-yl)-N^3-(3H-imidazo[4,5-b]pyridin-2-yl)cyclopentane-1,3-diamine] | 2.22 | > 10 | 0.021
15 | O=c1ccc2ccccc2n1-c1ccc(N[C@H]2CC[C@H](Nc3nc4cccnc4[nH]3)C2)nc1 [Example 33, 1-(6-(((1S,3S)-3-((3H-Imidazo[4,5-b]pyridin-2-yl)amino)cyclopentyl)amino)pyridin-3-yl)quinolin-2(1H)-one] | > 40 | > 10 | 
16 | Cn1c(=O)n(-c2ccc(N[C@H]3CC[C@H](Nc4nc5cccnc5[nH]4)C3)nc2)c2ncccc21 [Example 45, 3-(6-(((1S,3S)-3-((3H-Imidazo[4,5-b]pyridin-2-yl)amino)cyclopentyl)amino)pyridin-3-yl)-1-methyl-1,3-dihydro-2H-imidazo[4,5-b]pyridin-2-one] | > 40 | > 10 | 
17 | Cc1ncc(-c2ccc(=O)n(-c3ccc(N[C@H]4CC[C@H](Nc5nc6cccnc6[nH]5)C4)nc3)c2)cn1 [Example 53, 6′-(((1S,3S)-3-((3H-Imidazo[4,5-b]pyridin-2-yl)amino)cyclopentyl)amino)-5-(2-methylpyrimidin-5-yl)-2H-[1,3′-bipyridin]-2-one] | > 40 | 3.86 | 0.019
18 | O=c1ccccn1-c1ccc(N[C@H]2CC[C@H](Nc3nc4cc(C5CC5)cnc4[nH]3)C2)nc1 [Example 55, 6′-(((1S,3S)-3-((6-Cyclopropyl-3H-imidazo[4,5-b]pyridin-2-yl)amino)cyclopentyl)amino)-2H-[1,3′-bipyridin]-2-one] | > 40 | 1.77 | 0.0026
19 | CP(C)(=O)c1cnc2[nH]c(N[C@H]3CC[C@H](Nc4ccc(-n5ccccc5=O)cn4)C3)nc2c1 [Example 58, 6′-(((1S,3S)-3-((6-(Dimethylphosphoryl)-3H-imidazo[4,5-b]pyridin-2-yl)amino)cyclopentyl)amino)-2H-[1,3′-bipyridin]-2-one] | > 40 |  | 0.22
20 | Fc1cccc(F)c1-c1ccc(N[C@H]2CC[C@H](Nc3nc4cccnc4[nH]3)C2)nc1 [Example 68, (1S,3S)—N^1-(5-(2,6-Difluorophenyl)pyridin-2-yl)-N^3-(3H-imidazo[4,5-b]pyridin-2-yl)cyclopentane-1,3-diamine] | 6.55 | > 10 | 
21 | Fc1cccc(OC(F)(F)F)c1-c1ccc(N[C@H]2CC[C@H](Nc3nc4cccnc4[nH]3)C2)nc1 [Example 70, (1S,3S)—N^1-(5-(2-Fluoro-6-(trifluoromethoxy)phenyl)pyridin-2-yl)-N^3-(3H-imidazo[4,5-b]pyridin-2-yl)cyclopentane-1,3-diamine] |  | > 10 | 0.0244
22 | O=c1ccccn1-c1ccc(N[C@H]2CC[C@H](Nc3nc4ccc(OC(F)F)cc4o3)C2)nc1 [Example 85, 6′-(((1S,3S)-3-((6-(Difluoromethoxy)benzo[d]oxazol-2-yl)amino)cyclopentyl)amino)-2H-[1,3′-bipyridin]-2-one] |  |  | 0.0146
